According to PubChem BioAssay AID330 (DTP/NCI, 2004):
Several values for one entry are separate records, joined by “and”; a condition that tells them apart may be missing. Identical values can stand only once. Toxic doses and inconclusive results are not listed. Rule for the calls: active = survival T/C of 150% or more; inactive = T/C below 125% in these data.

System: P388 leukemia ip, CD2F1 mice, survival T/C
Assay: NCI In Vivo Anticancer Drug Screen. Data for tumor model P388 Leukemia (intraperitoneal) in CD2F1 (CDF1) mice
Settings: endpoint: median survival time, higher = longer survival
Summary of the method: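 Mice carrying the transplanted tumor received test compound or vehicle. Survival was recorded in each group, and the value is the treated-group measurement divided by that of the vehicle-treated control group.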

[1] = dose: 50.0 mg/kg/injection, schedule: Q01DX009 (ip), vehicle: saline with Tween-80
[2] = dose: 100.0 mg/kg/injection, schedule: Q01DX009 (ip), vehicle: saline with Tween-80
[3] = dose: 200.0 mg/kg/injection, schedule: Q01DX009 (ip), vehicle: saline with Tween-80
[4] = dose: 60.0 mg/kg/injection, schedule: Q01DX005 (ip), vehicle: Klucel (hydroxypropylcellulose) (HPC)
[5] = dose: 120.0 mg/kg/injection, schedule: Q01DX005 (ip), vehicle: Klucel (hydroxypropylcellulose) (HPC)
[6] = dose: 60.0 mg/kg/injection, schedule: Q01DX005 (ip), vehicle: saline with Tween-80
[7] = dose: 120.0 mg/kg/injection, schedule: Q01DX005 (ip), vehicle: saline with Tween-80
[8] = dose: 240.0 mg/kg/injection, schedule: Q01DX005 (ip), vehicle: saline with Tween-80
[9] = dose: 50.0 mg/kg/injection, schedule: Q01DX005 (ip), vehicle: saline with Tween-80
[10] = dose: 200.0 mg/kg/injection, schedule: Q01DX005 (ip), vehicle: saline with Tween-80
[11] = dose: 30.0 mg/kg/injection, schedule: Q01DX005 (ip), vehicle: saline with Tween-80
[12] = dose: 120.0 mg/kg/injection, schedule: Q01DX005 (ip), vehicle: saline
[13] = dose: 240.0 mg/kg/injection, schedule: Q01DX005 (ip), vehicle: saline
[14] = dose: 12.5 mg/kg/injection, schedule: Q01DX009 (ip), vehicle: saline with Tween-80
[15] = dose: 25.0 mg/kg/injection, schedule: Q01DX009 (ip), vehicle: saline with Tween-80
[16] = dose: 100.0 mg/kg/injection, schedule: Q01DX005 (ip), vehicle: saline with Tween-80
[17] = dose: 50.0 mg/kg/injection, schedule: Q01DX005 (ip), vehicle: Klucel (hydroxypropylcellulose) (HPC)
[18] = dose: 100.0 mg/kg/injection, schedule: Q01DX005 (ip), vehicle: Klucel (hydroxypropylcellulose) (HPC)
[19] = dose: 200.0 mg/kg/injection, schedule: Q01DX005 (ip), vehicle: Klucel (hydroxypropylcellulose) (HPC)
[20] = dose: 200.0 mg/kg/injection, schedule: Q01DX001 (ip), vehicle: saline with Tween-80

Measured: T/C

CC(C)OC(=S)SCC(=O)c1ccc(C(F)(F)F)cc1
inactive: [1] 105 % of control | [2] 104 % of control | [3] 98 % of control | dose: 400.0 mg/kg/injection, schedule: Q01DX009 (ip), vehicle: saline with Tween-80 100 % of control

O=C(NC(=O)c1ccc(F)c(Cl)c1)NC1CC1
inactive: [4] 100 % of control | [5] 102 % of control | dose: 240.0 mg/kg/injection, schedule: Q01DX005 (ip), vehicle: Klucel (hydroxypropylcellulose) (HPC) 93 % of control

O=c1c(CS(=O)(=O)c2ccccc2)c(-c2ccccc2)c1=O
inactive: dose: 100.0 mg/kg/injection, schedule: Q04DX002 (ip), vehicle: saline with Tween-80 104 % of control | dose: 200.0 mg/kg/injection, schedule: Q04DX002 (ip), vehicle: saline with Tween-80 104 % of control | dose: 400.0 mg/kg/injection, schedule: Q04DX002 (ip), vehicle: saline with Tween-80 97 % of control

COC(=O)C1CCC(=O)N1Cc1cccs1 (stereo not given)
inactive: [6] 109 % of control | [7] 104 % of control | [8] 106 % of control

O=C([O-])c1cc(Br)cc(Br)c1[OH2+].O=C([O-])c1cc(Br)cc(Br)c1[OH2+].[Mn+2]
inactive: [6] 109 % of control | [7] 115 % of control

S=c1[nH]c(=S)c2[nH]c(=S)[nH]c2[nH]1
inactive: dose: 12.5 mg/kg/injection, schedule: Q01DX005 (ip), vehicle: saline with Tween-80 92 % of control | dose: 25.0 mg/kg/injection, schedule: Q01DX005 (ip), vehicle: saline with Tween-80 96 % of control | [9] 90 % of control and 95 % of control | [10] 89 % of control

N#Cc1c(-c2nc3ccccc3s2)c(=O)oc2cc(O)ccc12
inactive: [6] 99 % of control | [7] 95 % of control | [8] 95 % of control

C[Si](C)(C)CCCn1cc(F)c(=O)n(CCC[Si](C)(C)C)c1=O
inactive: [6] 104 % of control | [7] 104 % of control | [8] 101 % of control

CN(c1ccccc1)c1c(Cl)c(=O)oc2c1ccc1occc12
inactive: [11] 103 % of control | [6] 106 % of control | [12] 96 % of control | [8] 105 % of control | [13] 103 % of control

CCCCCCC1(/C=C\c2ccccc2)OCCO1
inactive: [1] 102 % of control | [2] 110 % of control | [3] 101 % of control

O=S(=O)(O)c1ccc(OCCCCCCCCCCOc2ccc(S(=O)(=O)O)cc2)cc1
inactive: dose: 60.0 mg/kg/injection, schedule: Q01DX005 (ip), vehicle: saline 105 % of control | [12] 102 % of control | [13] 98 % of control

C/C(O)=C(/N=Nc1ccc(-c2nc3ccc(C)c(S(=O)(=O)O)c3s2)cc1)C(=O)Nc1ccccc1
inactive: dose: 6.25 mg/kg/injection, schedule: Q01DX009 (ip), vehicle: saline with Tween-80 104 % of control | [14] 95 % of control | [15] 96 % of control

CC1=NN(c2ccccc2)C(=O)/C1=C(\[O-])c1ccccc1.CC1=NN(c2ccccc2)C(=O)/C1=C(\[O-])c1ccccc1.[Co+2]
inactive: dose: 15.0 mg/kg/injection, schedule: Q01DX005 (ip), vehicle: saline with Tween-80 100 % of control | [11] 102 % of control | [6] 102 % of control and 109 % of control

N#Cc1cccc(C(N)=O)c1C(N)=O
inactive: [9] 104 % of control | [16] 98 % of control | [10] 95 % of control

CN(C)c1nnnn1-c1ccccc1
inactive: [6] 104 % of control | [7] 107 % of control | [8] 107 % of control

C=CCC12CC(COc3ccccc3C(N)=O)OC1=Nc1ccccc1NC2=O (stereo not given)
inactive: [9] 113 % of control | [16] 100 % of control | [10] 99 % of control

CC(=O)N(OS(C)(=O)=O)C1CCCCC1
inactive: dose: 50.0 mg/kg/injection, schedule: Q01DX007 (ip), vehicle: saline with Tween-80 92 % of control | dose: 100.0 mg/kg/injection, schedule: Q01DX007 (ip), vehicle: saline with Tween-80 100 % of control | dose: 200.0 mg/kg/injection, schedule: Q01DX007 (ip), vehicle: saline with Tween-80 90 % of control

CC(O)C(O)C=O (stereo not given)
inactive: dose: 248.0 mg/kg/injection, schedule: Q01DX010 (ip), vehicle: saline 110 % of control

O=C1CC2(CCc3ccccc32)C(=O)N1CN1CCN(c2ccccn2)CC1 (stereo not given)
inactive: [9] 106 % of control | [16] 109 % of control | [10] 92 % of control

CC1(C)Cc2nc3ccccc3nc2-c2ccccc21
inactive: [9] 101 % of control | [16] 98 % of control | [10] 100 % of control

COc1ccc(CCN2C(=O)CCC3=C2CCCC3=O)cc1OC
inactive: dose: 25.0 mg/kg/injection, schedule: Q01DX005 (ip), vehicle: Klucel (hydroxypropylcellulose) (HPC) 102 % of control | [17] 100 % of control | [18] 102 % of control | [19] 100 % of control

COc1ccc(C(c2cc3c(cc2O)OCO3)N2CCCC2)cc1 (stereo not given)
inactive: [4] 100 % of control | [5] 100 % of control

Nc1cc2c3c(cccc3c1)C(=O)N2
inactive: dose: 100.0 mg/kg/injection, schedule: Q01DX001 (ip), vehicle: saline with Tween-80 106 % of control | [20] 106 % of control

COC(=O)c1c(C(=O)OC)c2ccc3ccccc3n2c1-c1ccccc1
inactive: dose: 12.5 mg/kg/injection, schedule: Q01DX001 (ip), vehicle: saline with Tween-80 115 % of control | dose: 25.0 mg/kg/injection, schedule: Q01DX001 (ip), vehicle: saline with Tween-80 94 % of control | dose: 50.0 mg/kg/injection, schedule: Q01DX001 (ip), vehicle: saline with Tween-80 94 % of control | [20] 93 % of control | dose: 400.0 mg/kg/injection, schedule: Q01DX001 (ip), vehicle: saline with Tween-80 100 % of control

Cc1cc(N(CCCl)CCCl)ccc1CN1CCCN(Cc2ccc(N(CCCl)CCCl)cc2C)C1c1ccccc1O
inactive: [14] 123 % of control

CC(C)NCC1CCc2cc(CO)c([N+](=O)[O-])cc2N1 (stereo not given)
inactive: [17] 105 % of control | [18] 107 % of control | [19] 106 % of control

CC1Oc2cc3c(-c4c(O)cc(O)c5c(O)c6c(cc45)OC(C)C(C)C6=O)c(O)cc(O)c3c(O)c2C(=O)C1C (stereo not given)
inactive: dose: 1.25 mg/kg/injection, schedule: Q01DX005 (ip), vehicle: saline 101 % of control | dose: 1.25 mg/kg/injection, schedule: Q01DX005 (ip), vehicle: suspension in saline 100 % of control | dose: 2.5 mg/kg/injection, schedule: Q01DX005 (ip), vehicle: saline 100 % of control | dose: 2.5 mg/kg/injection, schedule: Q01DX005 (ip), vehicle: suspension in saline 95 % of control | dose: 5.0 mg/kg/injection, schedule: Q01DX005 (ip), vehicle: suspension in saline 121 % of control | dose: 10.0 mg/kg/injection, schedule: Q01DX005 (ip), vehicle: suspension in saline 116 % of control | dose: 20.0 mg/kg/injection, schedule: Q01DX005 (ip), vehicle: suspension in saline 110 % of control

C=CCNC(=S)N/N=C/c1nccc(-c2ccccc2)c1C
inactive: [15] 112 % of control | [1] 86 % of control

COc1ccc(-n2nc3c(ccc4ccccc43)c2NC2CCCCC2)cc1
inactive: [6] 104 % of control | [7] 98 % of control | [8] 102 % of control
